In BindingDB's records for doi:10.1021/jm960093o (Agouron Pharmaceuticals, 1996):

These molecules were tested against T1, Dimer of Gag-Pol polyprotein [489-587] (Human immunodeficiency virus 1, UniProt P12497) (assay: Protease Inhibition Assay). Conditions: pH 5.6; 37 °C.
T1 construct: 489-587
Method: Protease activity was measured by continuous chromogenic assay. The chromogenic peptide His-Lys-Ala-Arg-Val-Leu- (p-NO2-Phe)-Glu-Ala-Nleu-Ser (Bachem) was used as a substrate. Reactions were followed by the decrease of absorbance at 300 nm measured by spectrophotometer. Experimental results were analyzed by the nonlinear regression analysis, using a mathematical model for tight binding inhibitors.

Compared with `CC(C)N1CCC(CC(O)CCc2ccc3ccccc3c2C(=O)NC(C)(C)C)=C(C(=O)NC(C)(C)C)C1` (centres undefined) [N-tert-butyl-4-{4-[1-(tert-butylcarbamoyl)naphthalen-2-yl]-2-hydroxybutyl}-1-(propan-2-yl)-1,2,5,6-tetrahydropyridine-3-carboxamide], `CC(C)(C)NC(=O)c1ccccc1NCC(O)Cc1ccc2ccccc2c1C(=O)NC(C)(C)C` (centres undefined) [N-tert-butyl-2-(3-{[2-(tert-butylcarbamoyl)phenyl]amino}-2-hydroxypropyl)naphthalene-1-carboxamide] is 1.7-fold higher in IC50: 70 µM for the first, 120 µM for the second.

`CC(C)(C)NC(=O)c1ccccc1SCC(O)c1ccccc1C(=O)NC(C)(C)C` (centres undefined) [N-tert-butyl-2-({2-[2-(tert-butylcarbamoyl)phenyl]-2-hydroxyethyl}sulfanyl)benzamide] and `CC(C)(C)NC(=O)c1ccccc1CC(O)CSc1ccccc1NC(=O)C(C)(C)C` (centres undefined) [N-tert-butyl-2-(3-{[2-(2,2-dimethylpropanamido)phenyl]sulfanyl}-2-hydroxypropyl)benzamide] cannot be ordered by IC50: greater than 200 µM for the first, greater than 200 µM for the second.
